For this experiment, the target named is PAI-1 (Homo sapiens, UniProt P05121). Nature of the experiment: PAI chromogenic substrate assay (first S2251 assay, tPA/plasminogen system). It counts as biochemical. The method in brief: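 Compound preincubated with PAI-1, then added to a tPA/plasminogen system; residual tPA activity generates plasmin, which cleaves chromogenic substrate S2251, releasing p-nitroaniline read at 405 nm.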

Our source for the Inhibition of PAI-1 in the first S2251 chromogenic substrate assay values is patent publication US5700804A, “Pharmaceutical compounds” (Xenova Limited, priority 1992, dated 1997).

PAI-1, sequence (P05121 24-402): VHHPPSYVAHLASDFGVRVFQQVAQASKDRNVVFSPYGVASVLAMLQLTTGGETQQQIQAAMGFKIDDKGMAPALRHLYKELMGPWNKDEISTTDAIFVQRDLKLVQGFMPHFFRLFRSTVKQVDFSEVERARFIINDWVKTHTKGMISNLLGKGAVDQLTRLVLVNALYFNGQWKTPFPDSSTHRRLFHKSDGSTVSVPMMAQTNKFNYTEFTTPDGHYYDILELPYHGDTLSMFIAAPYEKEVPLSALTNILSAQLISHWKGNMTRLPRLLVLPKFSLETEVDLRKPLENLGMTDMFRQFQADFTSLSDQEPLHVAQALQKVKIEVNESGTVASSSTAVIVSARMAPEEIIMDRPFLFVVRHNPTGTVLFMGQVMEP

The compound `CSCc1ccc(/C=c2\[nH]c(=O)/c(=C/c3ccccc3)[nH]c2=O)cc1` [Compound 59, (3Z,6Z)-6-Benzylidene-3-(4-methylthiomethylbenzylidene)-2,5-piperazinedione] returned an Inhibition of PAI-1 in the first S2251 chromogenic substrate assay (Concentration 12.5 μm) of 19%, an Inhibition of PAI-1 in the first S2251 chromogenic substrate assay (Concentration 25 μm) of 60%, an Inhibition of PAI-1 in the first S2251 chromogenic substrate assay (Concentration 50 μm) of 76% and an Inhibition of PAI-1 in the first S2251 chromogenic substrate assay (Concentration 100 μm) of 71%.
